The record followed here is US9585891B2 (MERCK PATENT GMBH, priority 2012, dated 2017).

In general, IC50 refers to the concentration at which inhibition is half-maximal.

Test [1] has as its target T1, Human recombinant Vanin-1 (VNN1) (Homo sapiens, UniProt O95497).
T1 construct: purchased Sino Biological Inc. 11662-H08H
T1 sequence (O95497 22-491): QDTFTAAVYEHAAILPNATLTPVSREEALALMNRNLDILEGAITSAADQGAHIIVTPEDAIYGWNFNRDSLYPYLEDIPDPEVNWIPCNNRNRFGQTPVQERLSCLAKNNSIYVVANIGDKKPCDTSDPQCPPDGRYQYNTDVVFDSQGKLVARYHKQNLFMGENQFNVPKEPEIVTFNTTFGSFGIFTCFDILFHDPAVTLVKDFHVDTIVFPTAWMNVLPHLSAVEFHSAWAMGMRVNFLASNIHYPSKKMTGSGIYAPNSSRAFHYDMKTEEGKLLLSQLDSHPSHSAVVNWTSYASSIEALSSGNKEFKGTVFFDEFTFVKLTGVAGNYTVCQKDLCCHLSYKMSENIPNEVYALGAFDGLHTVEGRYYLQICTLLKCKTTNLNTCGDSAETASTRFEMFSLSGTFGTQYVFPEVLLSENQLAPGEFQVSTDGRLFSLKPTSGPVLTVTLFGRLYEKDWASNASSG
Briefly: Vanin-1 enzymatic assay (fluorescence intensity, Pantothenate-AMC substrate). The test is classed as biochemical. Conditions: purified recombinant human Vanin-1 0.5 nM; 30 min preincubation at 30° C.; Pantothenate-AMC 30 μM, 60 min. The procedure:
Human recombinant Vanin-1 (VNN1) was purchased from Sino Biological Inc. (Catalog Number: 11662-H08H).
Measurement of VNN1 inhibition is performed in 384-well format based on fluorescence intensity assay. Purified recombinant human Vanin-1 (0.5 nM) and threefold serial diluted compounds in 3% DMSO (range of concentrations from 30 μM to 1.524 nM) or controls (3.0% DMSO) are incubated for 30 minutes at 30° C. with gentle agitation in assay buffer containing 100 mM potassium Phosphate Buffer (KPi), pH 7.5, 0.001% Bovine Serum Albumin (BSA), 0.5 mM dithiothreitol (DTT) and 0.0025% Brij-35. The reaction is initiated by the addition of the fluorogenic substrate, Pantothenate-AMC, at a concentration of 30 μM. After 60 minutes of incubation at 30° C. with gentle agitation, fluorescence intensity is measured at λex=350 nm and λem=450 nm with a fluorescence reader (BMG PHERAstar reader or equivalent).

The target in test [2] is T2, Vanin-1 in SUIT-S2 cell line (Homo sapiens, UniProt O95497).
T2 construct: endogenous in cells; host or cells: SUIT-S2 cell line (ATCC # CRL1596)
T2 sequence (O95497 22-491): T1 sequence (O95497 22-491)
The test can be described thus: Vanin-1 cell-based mechanistic assay (fluorescence intensity, Pantothenate-AMC substrate). Conditions: 40000 cells per well, 2 hours incubation at 37° C., Pantothenate-AMC 30 μM, 30 min. The procedure: Vanin-1 Cell-Based Mechanistic Assay:
The cellular activity of the examples is measured in 96-well format based on fluorescence intensity assay using SUIT-S2 cell line (ATCC # CRL1596).
Cells are cultured at 37° C. with 5% CO2 to 80-90% confluence and then washed once with phosphate-buffered saline (PBS). Adherent cells are detached with PBS-EDTA and once in suspension 40000 cells are dispensed in 90 μl of PBS in 96-well black plates with clear bottoms. Threefold serial dilutions of test compounds are made in DMSO and then solubilized in PBS, dilution range 1:30. Cells and serial diluted test compounds (final concentrations 10 μM to 4.6 nM) or controls (PBS/0.3% DMSO) are incubated for 2 hours at 37° C. with 5% CO2. The reaction is initiated by the addition of the fluorogenic substrate, Pantothenate-AMC, at a concentration of 30 μM. After 30 minutes of incubation at 30° C. with gentle agitation, fluorescence intensity is measured at λex=350 nm and λem=450 nm with a fluorescence reader (BMG PHERAstar reader or equivalent).

On to `CC(C)(CO)[C@@H](O)C(=O)NCCC(=O)C(=O)NCc1ccc(Br)cc1` [Example 31, (R)—N-[3-(4-Bromo-benzylcarbamoyl)-3-oxo-propyl]-2,4-dihydroxy-3,3-dimethyl-butyramide], for which the IC50 was less than 10 nM in test [1] and 10 nM in test [2].
Taken in the same sequence, the figures for `CC(C)(CO)[C@@H](O)C(=O)NCCC(=O)C(=O)NCc1ccc(C(=O)NCCc2ccc(Oc3ccccc3)cc2)cc1` [Example 32, 4-{[4-((R)-2,4-Dihydroxy-3,3-dimethyl-butrylamino)-2-oxo-butyrylamino]-methyl)-N-[2-(4-phenoxy-phenyl)-ethyl]-benzamide] were less than 10 nM and less than 10 nM.
In the case of `CC(C)(CO)[C@@H](O)C(=O)NCCC(=O)C(=O)NCc1ccc(S(=O)(=O)N2CCCCC2)cc1` [Example 33, (R)-2,4-Dihydroxy-3,3-dimethyl-N-{3-oxo-3-[4-(piperidine-1-sulfonyl)-benzylcarbamoyl]-propyl}-butyramide], the IC50 in test [1] and in test [2] was less than 10 nM in each case.
In the case of `CC(C)(CO)[C@@H](O)C(=O)NCCC(=O)C(=O)NCc1ccc(OCCNS(C)(=O)=O)cc1` [Example 39, (R)-2,4-Dihydroxy-N-(3-[4-(2-methanesulfonylamino-ethoxy)-benzylcarbamoyl]-3-oxo-propyl)-3,3-dimethyl-butyramide], the IC50 in test [1] was 20 nM; in test [2], less than 10 nM.
Taken in the same sequence, the figures for `CC(C)(CO)[C@@H](O)C(=O)NCCNC(=O)CCl` [Example 57, (R)—N-[2-(2-Chloro-acetylamino)-ethyl]-2,4-dihydroxy-3,3-dimethyl-butyramide] were 2540 nM and 1110 nM.
Turning to `CC(C)(CO)[C@@H](O)C(=O)NCCN(CCCc1ccccc1)C(=O)CCl` [Example 58, (R)—N-{2-[(2-Chloro-acetyl)-(3-phenyl-propyl)-amino]-ethyl}-2,4-dihydroxy-3,3-dimethyl-butyramide], the IC50 in test [1] was 2480 nM; in test [2] it was 220 nM.
For the molecule `CC(C)(CO)[C@@H](O)C(=O)NCCN(CCc1ccccc1)C(=O)CCl` [Example 59, (R)—N-{2-[(2-Chloro-acetyl)-phenethyl-amino]-ethyl}-2,4-dihydroxy-3,3-dimethyl-butyramide], the IC50 in test [1] turned out to be 4040 nM; in test [2], 1200 nM.
Taken in the same sequence, the figures for `CC(C)(CO)[C@@H](O)C(=O)NCCN(Cc1ccccc1)C(=O)CCl` [Example 60, (R)—N-{2-[Benzyl-(2-chloro-acetyl)-amino]-ethyl}-2,4-dihydroxy-3,3-dimethyl-butyramide] were 3570 nM and 600 nM.
Taken in the same sequence, the figures for `CC(C)(CO)[C@@H](O)C(=O)NCCN(CCOc1ccc(C#N)cc1)C(=O)CCl` [Example 61, (R)—N-(2-{(2-Chloro-acetyl)-[2-(4-cyano-phenoxy)-ethyl]-amino}-ethyl)-2,4-dihydroxy-3,3-dimethyl-butyramide] were 3280 nM and 220 nM.
For `CC(C)(CO)[C@@H](O)C(=O)NCCN(CC1CCN(c2ccc(C#N)cc2)CC1)C(=O)CCl` [Example 62, (R)—N-(2-{(2-Chloro-acetyl)-[1-(4-cyano-phenyl)-piperidin-4-ylmethyl]-amino}-ethyl)-2,4-dihydroxy-3,3-dimethyl-butyramide], in that order: 1360 nM and 210 nM.
